# Experiments:
# [1] = Intratumoral gemcitabine pharmacokinetic analysis; format: in vivo, mouse; conditions: KPC tumors, with versus without MEKi and AKTi
# [2] = test system: KPC mice (pancreatic ductal adenocarcinoma); assay: Survival study in tumor-bearing KPC mice; format: in vivo, mouse
# [3] = test system: hT3 organoid orthotopic xenografts in NSG mice; assay: Orthotopic xenografts of human tumor organoids, 7-day trial; format: in vivo, mouse
# [4] = test system: mouse tumor organoids (mT); assay: Organoid cytotoxicity assay; format: cell-based; conditions: 72 h, read-out: EC50 mT
# [5] = test system: mouse organoids from normal pancreata (mN); assay: Organoid cytotoxicity assay; format: cell-based; conditions: 72 h, read-out: EC50 mN
# [6] = test system: human organoids from normal pancreata (hN); assay: Organoid cytotoxicity assay; format: cell-based; conditions: 72 h, read-out: EC50 hN
Compound,intratumoral concentration of Gem and its metabolites [1],survival (in words) [2],tumor growth (in words) [2],cell death by CC3 IHC (in words) [3],cell proliferation by Ki67 IHC (in words) [3],EC50 [4] [nM],EC50 [5] [nM],EC50 [6] [µM]
"Nc1ccn([C@@H]2O[C@H](CO)[C@@H](O)C2(F)F)c(=O)n1 [Gem, gemcitabine]",no differences in intratumoral concentration,did not significantly impact,did not significantly impact,–,–,–,–,–
"CCOc1cc2ncc(C#N)c(Nc3ccc(OCc4ccccn4)c(Cl)c3)c2cc1NC(=O)/C=C/CN(C)C [ERBBi, neratinib]",–,–,–,no effect on cell death,reduced cell proliferation,1200,–,–
"Cn1cnc2c(F)c(Nc3ccc(Br)cc3Cl)c(C(=O)NOCCO)cc21 [MEKi, selumetinib]",–,did not significantly impact,did not significantly impact,significantly increased,did not have any significant impact,–,2000,12
"NC1(c2ccc(-c3nc4ccn5c(=O)[nH]nc5c4cc3-c3ccccc3)cc2)CCC1 [AKTi, MK2206]",–,without extension in survival,reduced tumor growth,–,–,–,140,70
